{
  "source": "paper PMC7067850",
  "about": "“Identification of highly potent and selective inhibitor, TIPTP, of the p22phox-Rubicon axis as a therapeutic agent for rheumatoid arthritis” (Scientific Reports, 2020)",
  "key": {"[1]": {"tested_on": "ROS (O2− and H2O2)", "assay": "Flow cytometric measurement of ROS production in BMDMs", "type": "cell-based, mouse", "conditions": "LPS-primed BMDMs, compound 1 h, ATP 30 min (Fig. 3d)", "experimental": "Intracellular ROS levels were measured by flow cytometry from cells cultured in serum-free medium and loaded with the redox-sensitive dye 2 µM dihydroethidium (DHE for O2^−; Calbiochem) or 10 µM 2′,7′-Dichlorofluorescin diacetate (DCFH-DA for H2O2; Calbiochem)[18],[19]. The cells were thoroughly and quickly washed with pulse spin and immediately acquired for analyses in FACSCalibur (BD Biosciences, San Jose, CA). The data were plotted using CellQuest software (BD Biosciences).\nFigure 3 TIPTP robustly suppresses LPS/ATP-mediated Rubicon-p22phox interaction and ROS-mediated inflammation. (a) Structure of the TIPTP. (b) MTT assay for cell viability. BMDMs were incubated with TIPTP for the indicated times at the indicated TIPTP concentrations (upper). WCLs were used for IB with α22phox, αRubicon, or αActin (lower). (c–f) LPS (100 ng/ml)-primed BMDMs were treated with compounds for 1 h, and then activated with ATP (1 mM) for 30 min. (c) NADPH oxidase activity. (d) FACS analysis for superoxide and hydrogen peroxide (upper). Quantitative analysis of mean fluorescence intensities of ROS (lower). (e) BMDMs were incubated with increasing concentrations of compound 1 and TIPTP (com 2) (***). IP with αRubicon, followed by IB with αp22phox, αBeclin-1, αUVRAG, αRubicon. […] (f) Culture supernatants were harvested and analyzed for cytokines by ELISA. […]"}, "[2]": {"assay": "Pharmacokinetic study in male ICR mice (IP and IV)", "type": "in vivo, mouse", "experimental": "TIPTP at a dose of 0.5 mg/kg and 1 mg/kg was administered intravenously and intraperitoneally to male ICR mice. Blood samples were collected via the carotid artery at 0 (to serve as a control), 0.03, 0.16, 0.25, 0.5, 1, 2, 4, 6, and 24 h after administration of the compound. After centrifugation at 3000 rpm for 10 min, a 13.5 µL aliquot of plasma samples were stored at -20 C until analysis. Pharmacokinetic parameters were determined by a noncompartmental analysis using WinNonlin® (Pharsight Corporation, Mountain View, CA) program. The total area under the plasma concentration-time curve from time zero to the last measured time (AUClast) was calculated by the trapezoidal rule[…] method. Standard methods in the literature (M. Gibaldi, D. Perrier, Pharmacokinetics, second ed., Marcel-Dekker, New York, 1982.) were used to calculate the following pharmacokinetic parameters; the time averaged total body clearance (CL), total area under the first moment of plasma concentration-time curve from time zero to time infinity (AUC0-∞), terminal half-life, mean residence time (MRT), apparent volume of distribution at steady state (Vss). Concentrations of the compound in the above samples were analyzed using LC-MS/MS. To a 13.5 µL aliquot of plasma sample, a 60 µL aliquot of acetonitrile containing 1 µg/mL of internal standard (carbamazepine) was added. After vortex mixing and centrifugation at 6,000 rpm for 15 min, a […] of supernatant was added to 100μL distilled water and injected into LCMS/MS system. The LC-MS/MS system consisted of Agilent 1200 series HPLC system (Agilent, Santa Clara, CA) and API3200® triple-quadrupole mass spectrometer (Applied Biosystems-SCIEX, Concord, Canada). The HPLC mobile phases consisted of 0.1% formic acid in water (A) and acetonitrile (B). Chromatographic separation was achieved on a reversed-phase Atlantis T3 column (100 x 2.1 mm, 3 µm, Waters Corporation, Milford, MA) using gradient elution at a flow rate of 0.25 mL/min. The lower limit of quantitation of the compound in mice plasma was 9.7 ng/mL. The values of coefficients of correlation (R) were more than 0.997."}, "[3]": {"conditions": "IP, 1 mg/kg, male ICR mouse plasma"}, "[4]": {"conditions": "IV, 0.5 mg/kg, male ICR mouse plasma"}},
  "data": [
    {"smiles": "C[C@@H](Oc1cccc(-n2cc3c(n2)CCCC3)c1)C(=O)Nc1nnc(C(F)(F)F)s1", "note": "[TIPTP, (R)-2-(3-(4,5,6,7-tetrahydro-2H-indazol-2-yl)phenoxy)-N-(5-(trifluoromethyl)-1,3,4-thiadiazol-2-yl)propanamide]", "values": [
      {"measurement": "ROS (O2− and H2O2) generation", "setting": "[1]", "value": "inhibited in a dose-dependent manner"},
      {"measurement": "AUC(0-inf)", "setting": "[2]; [3]", "value": "15100 ± 3410", "unit": "ng·h/mL"},
      {"measurement": "Cmax", "setting": "[2]; [3]", "value": "5590 ± 1430", "unit": "ng/mL"},
      {"measurement": "MRT inf", "setting": "[2]; [3]", "value": "3.42 ± 0.43", "unit": "h"},
      {"measurement": "Tmax", "setting": "[2]; [3]", "value": "0.23 ± 0.04", "unit": "h"},
      {"measurement": "half-life", "setting": "[2]; [3]", "value": "2.91 ± 0.14", "unit": "h"},
      {"measurement": "AUC(0-t)", "setting": "[2]; IP, 1 mg/kg, male ICR mouse plasma, n = 5, mean ± SD", "value": "15100 ± 3410", "unit": "ng·h/mL"},
      {"measurement": "AUC(0-inf)", "setting": "[2]; [4]", "value": "10000 ± 451", "unit": "ng·h/mL"},
      {"measurement": "MRT inf", "setting": "[2]; [4]", "value": "2.57 ± 0.52", "unit": "h"},
      {"measurement": "half-life", "setting": "[2]; [4]", "value": "3.67 ± 0.39", "unit": "h"},
      {"measurement": "AUC(0-t)", "setting": "[2]; IV, 0.5 mg/kg, male ICR mouse plasma, n = 3, mean ± SD", "value": "9980 ± 446", "unit": "ng·h/mL"},
      {"measurement": "clearance", "setting": "[2]; plasma, IV, 0.5 mg/kg, male ICR mouse", "value": 0.832, "unit": "mL/min/kg"},
      {"measurement": "Vd", "setting": "[2]; plasma, IV, 0.5 mg/kg, male ICR mouse, read-out: Vss", "value": "0.128 ± 0.0246", "unit": "L/kg"}
    ]}
  ]
}
